These results are taken from ChEMBL document CHEMBL1201862, “PubChem BioAssay data set” (2004).

Some test systems named below: OVCAR-4; SF-539; NCI-H522; HT-29; U-251; TK-10; UO-31; T47D; OVCAR-5; CCRF-CEM; SNB-19; OVCAR-8; COLO 205; SK-MEL-28; ACHN; KM12; HL-60; HCT-15; 786-0; UACC-257.
Common to all, as to assay: NCI anticancer screen, dose series, 48 h

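Cultured in 96-well plates, cells were exposed to test compound for 48 hours across five concentrations. At the GI50, growth is halved.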 The source made the active and inactive calls. Rule as the data show it: active = GI50 up to about 1.1 µM and inactive = higher.

In the case of `Cc1c(C)c2c(c(N)c1C#N)C(=O)N(O)C2=O`, the GI50 in the assay with OVCAR-4, in the assay on SF-539, in the assay on NCI-H522, in the assay with HT-29, with U-251 and in the assay with TK-10 was > 100 µM (inactive) each time. For the same molecule, the GI50 in the assay on UO-31, with T47D, in the assay on OVCAR-5, in the assay on CCRF-CEM, in the assay with SNB-19 and in the assay with OVCAR-8 was > 100 µM (inactive) in each case. In addition, the GI50 in the assay on COLO 205 is > 100 µM (inactive); in the assay with SK-MEL-28 it was > 100 µM (inactive); with ACHN, > 100 µM (inactive); with KM12, > 100 µM (inactive); with HL-60, > 100 µM (inactive); in the assay with HCT-15 it was above 100 µM. For the same molecule, the GI50 with 786-0 and with UACC-257 was > 100 µM (inactive) throughout.
On to `COc1c2c(cc3c1-c1c(cc4c(c1OC)OCO4)C1OC3C(C)C1C)OCO2.COc1cc2c(c(OC)c1OC)-c1c(cc3c(c1OC)OCO3)C1OC2C(C)C1C` (stereo not given), for which the GI50 was > 100 µM (inactive) with OVCAR-4; > 100 µM (inactive) in the assay with SF-539; 61.4 µM (inactive) with NCI-H522; 88.7 µM (inactive) in the assay on HT-29; > 100 µM (inactive) with U-251; > 100 µM (inactive) in the assay with TK-10. Further, the GI50 with UO-31 was 94.8 µM (inactive); with T47D it was 26.1 µM (inactive); in the assay on OVCAR-5, > 100 µM (inactive); with CCRF-CEM, 40.4 µM (inactive); in the assay with SNB-19, > 100 µM (inactive); with OVCAR-8, 57 µM (inactive). In addition, the GI50 in the assay on COLO 205 is > 100 µM (inactive); with SK-MEL-28 it was > 100 µM (inactive); in the assay with ACHN, > 100 µM (inactive); with KM12, 95.1 µM (inactive); in the assay with HL-60 it was 28.9 µM (inactive); in the assay on HCT-15, 67.9 µM. Moreover, the GI50 in the assay on 786-0 was > 100 µM (inactive); in the assay on UACC-257 it was 73.1 µM (inactive).
In the case of `COC(=O)c1c(O)c2c(c3c1OC(C)(C)CC3)OC(C)(C)CC2`, the GI50 with OVCAR-4 is 32.2 µM (inactive); in the assay on SF-539, 18 µM (inactive); in the assay with NCI-H522, 15.8 µM (inactive); in the assay on HT-29 it was 16.7 µM (inactive); in the assay on U-251 it was 15.2 µM (inactive); with TK-10, > 10 µM (inactive). Also, the GI50 is 18.8 µM (inactive) in the assay with UO-31; 21.8 µM (inactive) in the assay on T47D; 18.4 µM (inactive) with OVCAR-5; 23 µM (inactive) with CCRF-CEM; 18.2 µM (inactive) in the assay with SNB-19; 17.6 µM (inactive) in the assay with OVCAR-8. The GI50 with COLO 205 is 15 µM (inactive); with SK-MEL-28 it was 26.6 µM (inactive); in the assay with ACHN it was 18 µM (inactive); in the assay with KM12 it was 16.9 µM (inactive); with HL-60, 15.1 µM (inactive); with HCT-15, 21.2 µM. Besides, the values for the GI50 in the assay with 786-0 and with UACC-257 were 16.8 µM (inactive) and 20.4 µM (inactive), respectively.
For the molecule `CC(NC(=O)OC(C)(C)C)C(=O)NC(Cc1ccccc1)C(=O)NCC(=O)ON=C1CCCC1` (stereo not given), the GI50 in the assay on OVCAR-4 was > 100 µM (inactive); in the assay with SF-539, > 100 µM (inactive); in the assay with NCI-H522 it was 32.7 µM (inactive); in the assay on HT-29, > 100 µM (inactive); in the assay with U-251, 68.1 µM (inactive); in the assay with TK-10 it was > 100 µM (inactive). Moreover, the GI50 is 65.8 µM (inactive) with UO-31; > 100 µM (inactive) in the assay on T47D; > 100 µM (inactive) in the assay with OVCAR-5; 90.2 µM (inactive) with CCRF-CEM; > 100 µM (inactive) in the assay on SNB-19; > 100 µM (inactive) in the assay on OVCAR-8. Also, the GI50 with COLO 205 is > 100 µM (inactive); with SK-MEL-28 it was > 100 µM (inactive); in the assay on ACHN, > 100 µM (inactive); in the assay with KM12, 57.4 µM (inactive); with HL-60, > 100 µM (inactive); in the assay on HCT-15, above 100 µM. Also, the GI50 in the assay with 786-0 and in the assay with UACC-257 was > 100 µM (inactive) each time.
